How the values were obtained:
Oryctolagus cuniculus [1] = assay: Compound was evaluated for the intraocular pressure (IOP) in normal rabbits following topical dosing after 10 min; type: functional, Eye
Oryctolagus cuniculus [2] = assay: Compound was evaluated for the intraocular pressure (IOP) in normal rabbits following topical dosing after 20 min; type: functional, Eye
Oryctolagus cuniculus [3] = assay: Compound was evaluated for the intraocular pressure (IOP) in normal rabbits following topical dosing after 110 min; type: functional, Eye
Oryctolagus cuniculus [4] = assay: Compound was evaluated for the intraocular pressure (IOP) in normal rabbits following topical dosing after 120 min; type: functional, Eye
Carbonic anhydrase [5] = biological target: Carbonic anhydrase
Oryctolagus cuniculus [6] = assay: Compound was evaluated for the intraocular pressure (IOP) in normal rabbits following topical dosing after 70 min; type: functional, Eye
Oryctolagus cuniculus [7] = assay: Compound was evaluated for the intraocular pressure (IOP) in normal rabbits following topical dosing after 90 min; type: functional, Eye
Oryctolagus cuniculus [8] = assay: Compound was evaluated for the intraocular pressure (IOP) in normal rabbits following topical dosing after 80 min; type: functional, Eye
Oryctolagus cuniculus [9] = assay: Compound was evaluated for the intraocular pressure (IOP) in normal rabbits following topical dosing after 30 min; type: functional, Eye
Oryctolagus cuniculus [10] = assay: Compound was evaluated for the intraocular pressure (IOP) in normal rabbits following topical dosing after 100 min; type: functional, Eye
Oryctolagus cuniculus [11] = assay: Compound was evaluated for the intraocular pressure (IOP) in normal rabbits following topical dosing after 50 min; type: functional, Eye
Oryctolagus cuniculus [12] = assay: Compound was evaluated for the intraocular pressure (IOP) in normal rabbits following topical dosing after 60 min; type: functional, Eye
Oryctolagus cuniculus [13] = assay: Compound was evaluated for the intraocular pressure (IOP) in normal rabbits following topical dosing after 40 min; type: functional, Eye
Carbonic anhydrase [14] = assay: Compound was evaluated for the inhibition of Carbonic anhydrase (Competitive); type: protein assay
physchem [15] = conditions: octanol/pH 7.2 phosphate buffer
Description: Compound was evaluated for Octanol/pH 7.2 phosphate buffer distribution coefficient

physchem [16] = assay: physchem
Description: Compound was evaluated for pKa

[17] = buffer, pH 7.2
Description: Solubility, pH 7.2 phosphate buffer at 32 degree C

Oryctolagus cuniculus [18] = assay: Compound was evaluated for the intraocular pressure (IOP) in normal rabbits following topical dosing after 160 min; type: functional, Eye
Oryctolagus cuniculus [19] = assay: Compound was evaluated for the intraocular pressure (IOP) in normal rabbits following topical dosing after 140 min; type: functional, Eye
Oryctolagus cuniculus [20] = assay: Compound was evaluated for the intraocular pressure (IOP) in normal rabbits following topical dosing after 180 min; type: functional, Eye

| SMILES | IOP (Oryctolagus cuniculus [2]) | IOP (Oryctolagus cuniculus [4]) | Ki (Carbonic anhydrase [5]) | IOP (Oryctolagus cuniculus [8]) | IOP (Oryctolagus cuniculus [10]) | IOP (Oryctolagus cuniculus [12]) | IOP (Oryctolagus cuniculus [13]) | logD (physchem [15]) | pKa (physchem [16]) | Solubility [17] | Papp | further results |
| --- | --- | --- | --- | --- | --- | --- | --- | --- | --- | --- | --- | --- |
| CN(O)S(=O)(=O)c1ccc([N+](=O)[O-])cc1 | -0.33 mmHg | -1 mmHg | 44 nM | -1.67 mmHg | -0.5 mmHg | -1.67 mmHg | -1.67 mmHg |  |  |  |  | IOP (Oryctolagus cuniculus [1]): 0.33 mmHg; IOP (Oryctolagus cuniculus [3]): -0.33 mmHg; IOP (Oryctolagus cuniculus [6]): -2 mmHg; IOP (Oryctolagus cuniculus [7]): 0.2 mmHg; IOP (Oryctolagus cuniculus [9]): -0.67 mmHg; IOP (Oryctolagus cuniculus [11]): -1.83 mmHg |
| CNS(=O)(=O)c1ccc([N+](=O)[O-])cc1 |  |  | 146 nM |  |  |  |  |  |  |  |  |  |
| CNS(=O)(=O)c1nnc(NC(C)=O)s1 |  |  |  |  |  |  |  | 0.32 | 7.52 | 0.00144 M l-1 | 2.26 ×10⁻⁶ cm/s | Ki (Carbonic anhydrase [14]): 258 nM |
| CN(O)S(=O)(=O)c1ccc(Cl)cc1 | 0.17 mmHg | 0.33 mmHg | 107 nM | 0.17 mmHg | 0.67 mmHg | -1.25 mmHg | 1 mmHg |  |  |  |  | IOP (Oryctolagus cuniculus [18]): -0.25 mmHg; IOP (Oryctolagus cuniculus [19]): -0.33 mmHg; IOP (Oryctolagus cuniculus [20]): -0.25 mmHg |
| CNS(=O)(=O)c1ccc(Cl)cc1 |  |  | 584 nM |  |  |  |  | 1.92 | 11 | 0.0208 M l-1 | 65.1 ×10⁻⁶ cm/s |  |
| NS(=O)(=O)c1ccc(Cl)cc1 [P-CHLOROBENZENESULFONAMIDE] |  |  |  |  |  |  |  | 1.24 | 9.95 | 0.0223 M l-1 | 54.7 ×10⁻⁶ cm/s |  |
